# From patent US8058008B2, “Method for extracting quantitative information relating to an influence on a cellular response” (Fisher Bioimage APS, priority 1997, dated 2011)
# How the values were obtained:
# [1] = system: PKAc-F64L-S65T-GFP fusion; assay: PKAc-F64L-S65T-GFP redistribution in stably transfected CHO cells (fluorescence microscopy, image analysis); type: cell-based, murine
# Description: The catalytic subunit of the murine cAMP dependent protein kinase (PKAc) was fused C-terminally to a F64L-S65T derivative of GFP. The resulting fusion (PKAc-F64L-S65T-GFP) was used for monitoring in vivo the translocation and thereby the activation of PKA.
# Untransfected CHO cells were used as the control. […] Expression of GR was maintained with 500 mg G418/ml (Neo marker) and PKAc-F64L-S65T-GFP was maintained with 500 mg Zeocin/ml (Sh ble marker). CHO cells were also simultaneously co-transfected with vectors containing the PKAc-F64L-S65T-GFP fusion and the human a2a adrenoceptor (hARa2a).
# For fluorescence microscopy, cells were allowed to adhere to Lab-Tek chambered cover-glasses (Nalge Nunc Int., Naperville, Ill., USA) for at least 24 hours and cultured to about 80% confluence. Prior to experiments, the cells were cultured over night without selection pressure in HAM F-12 medium with glutamax (Life Technologies), 100 mg penicillin-streptomycin mixture ml^−1 and 0.3% FBS. This medium has low autofluorescence enabling fluorescence microscopy of cells straight from the incubator.
# The cells were illuminated with a 100 W HBO arc lamp.
# Method 1: Stepwise Procedure for Quantitation of Translocation of PKA:
# 3. The image histogram, i.e., the frequency of occurrence of each intensity value in the image, was calculated.
# 4. A smoothed, second derivative of the histogram was calculated and the second zero is determined. […]
# 5. The value determined in step 4 was subtracted from the image. […]
# 6. The variance (square of the standard deviation) of the remaining pixel values was determined. […]
# Method 2: Alternative Method for Quantitation of PKA Redistribution:
# 1. […] The area of each image occupied by the aggregates is calculated by counting pixels in the segmented areas. […] A value of zero (0) indicates no redistribution of fluorescence from the starting condition. […]
# As described above, the time it took for a response to come to completion was dependent on the forskolin dose (FIG. 5) In addition the degree of responses was also dose dependent. […] The amount of cAMP produced was measured in an SPA assay. […]
# [2] = target: T1, PKA-F64L-S65T-GFP probe / human a2a adrenoceptor (hARa2a) (Homo sapiens, UniProt P08913); assay: PKAc-F64L-S65T-GFP redistribution in transiently transfected CHO cells expressing hARa2a; type: cell-based, murine; conditions: 10 mM norepinephrine after 10 mM forskolin for 7.5 minutes, forskolin still present
# T1 construct: expressed in transfected cells; host or cells: CHO, transient co-transfection
# T1 sequence (P08913 1-465): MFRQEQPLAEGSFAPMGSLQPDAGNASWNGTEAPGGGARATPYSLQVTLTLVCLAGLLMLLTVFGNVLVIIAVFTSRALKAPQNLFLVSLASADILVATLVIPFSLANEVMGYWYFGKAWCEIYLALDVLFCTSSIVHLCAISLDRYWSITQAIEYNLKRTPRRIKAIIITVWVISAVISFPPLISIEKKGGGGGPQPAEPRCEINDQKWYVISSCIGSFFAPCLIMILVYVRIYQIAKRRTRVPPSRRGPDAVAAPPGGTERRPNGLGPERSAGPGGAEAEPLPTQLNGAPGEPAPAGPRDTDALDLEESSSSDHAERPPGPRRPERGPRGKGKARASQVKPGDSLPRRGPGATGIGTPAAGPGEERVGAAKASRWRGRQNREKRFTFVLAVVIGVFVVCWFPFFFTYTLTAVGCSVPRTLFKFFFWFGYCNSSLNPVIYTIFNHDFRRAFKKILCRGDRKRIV
# Description: Transiently transfected CHO cells expressing hARa2a and the PKA-F64L-S65T-GFP probe were treated with 10 mM forskolin for 7.5 minutes, then, in the continued presence of forskolin, exposed to 10 mM norepinephrine to stimulate the exogenous adrenoreceptors, which couple to a Gi protein, which inhibit adenylate cyclase.
# EGFP-Erk1 fusion = assay: EGFP-Erk1 nuclear translocation in HEK293 cells; type: cell-based, human
# Excerpt: b) The human Erk1 gene (GenBank Accession number: X60188) was amplified using PCR according to standard protocols with primers Erk1-top (SEQ ID NO:9) and Erk1-bottom/+stop (SEQ ID NO:10). The PCR product was digested with restriction enzymes EcoR1 and BamH1, and ligated into pEGFP-C1 (Clontech, Palo Alto; GenBank Accession number U55763) digested with EcoR1 and BamH1. This produces an EGFP-Erk1 fusion (SEQ ID NO:38 &39) under the control of a CMV promoter.
# The plasmid containing the EGFP-Erk1 fusion was transfected into HEK293 cells employing the FUGENE transfection reagent (Boehringer Mannheim). Prior to experiments the cells were grown to 80%-90% confluency 8 well chambers in DMEM with 10% FCS. […] Just before starting the experiment, the HAM F-12 was replaced with Hepes buffer following a wash with Hepes buffer. This removes the PD98059 inhibitor; if blocking of MEK1 is still wanted (e.g. in control experiments), the inhibitor is included in the Hepes buffer.
# The experimental setup of the microscope was as described in example 1.
# 60 images were collected with 10 seconds between each, and with the test compound added after image number 10.
# Redistribution of GFP fluorescence is expressed in this example as the change in the ratio value between areas in nuclear versus cytoplasmic compartments of the cell. Each time profile is the average of nuclear to cytoplasmic ratios from six cells in each treatment.
# [3] = system: actin-binding-domain-EGFP fusion; assay: Actin-binding-domain-EGFP redistribution in CHO cells expressing the human insulin receptor; type: cell-based; conditions: insulin stimulation
# Excerpt: The actin binding domain of the human alpha-actinin gene (GenBank Accession number: X15804) was amplified using PCR according to standard protocols with primers ABD-top (SEQ ID NO:90) and ABD-bottom/−stop (SEQ ID NO:91). The PCR product was digested with restriction enzymes Hind3 and BamH1, and ligated into pEGFP-N 1 (Clontech, Palo Alto; GenBank Accession number U55762) digested with Hind3 and BamH1. This produced an actin-binding-domain-EGFP fusion (SEQ ID NO:128 &129) under the control of a CMV promoter.
# The resulting plasmid was transfected into CHO cells expressing the human insulin receptor.
# cAMP = assay: Scintillation proximity assay (SPA) of cAMP produced in CHO cells; type: cell-based, Chinese hamster; conditions: 8 concentrations 0.01-50 mM (n=4), 100 mM IBMX, 10 min
# Description: 7. Scintillation proximity assay (SPA) for independent quantitation of cAMP:
# Cells were cultured in HAM F-12 medium as described above, but in 96-well plates. The medium was exchanged with Ca^2+-HEPES buffer including 100 mM IBMX and the cells were stimulated with different concentrations of forskolin for 10 min. Reactions were stopped with addition of NaOH to 0.14 M and the amount of cAMP produced was measured with the cAMP-SPA kit, RPA538 (Amersham) as described by the manufacturer.
# As described above, the time it took for a response to come to completion was dependent on the forskolin dose (FIG. 5) In addition the degree of responses was also dose dependent. To test the PKA-F64L-S65T-GFP fusion protein translocation in a semi high through-put system, CHO cells stably transfected with the PKA-F64L-S65T-GFP fusion was stimulated with buffer and 5 increasing doses of forskolin (n=8). […] In parallel, cells were stimulated with buffer and 8 increasing concentrations of forskolin (n=4) in the range 0.01-50 mM. The amount of cAMP produced was measured in an SPA assay. A steep increase was observed between 1 and 5 mM forskolin coincident with the steepest part of the curve for fusion protein translocation (also FIG. 6)
molecule,measurement,setting,value
CC(C)Cn1c(=O)n(C)c(=O)c2[nH]cnc21 [IBMX],temporal profile of fusion protein redistribution compared with forskolin,"[1]; 1 mM dbcAMP, 100 mM IBMX, no adenylate cyclase stimulation",slow response
same,return of fusion protein to prestimulatory localization after removal of forskolin,"[1]; 10 mM forskolin and 100 mM IBMX, then washed 5-8 times with buffer containing 100 mM IBMX",did not return to its prestimulatory localization
NC[C@H](O)c1ccc(O)c(O)c1 [norepinephrine],"localisation of fluorescence, indicative of a decrease in [cAMP]i",[2],reappearance of fluorescence in the cytoplasmic aggregates
COc1cccc(-c2cc(=O)c3ccccc3o2)c1N [PD98059],effect on nuclear EGFP-Erk1,"EGFP-Erk1 fusion; 100 micromolar PD98059, 30-60 minutes in plain HAM F-12 without FCS",effectively empties the nucleus of EGFP-Erk1
CCCC(=O)Nc1ncnc2c1ncn2[C@@H]1O[C@@H]2COP(=O)(O)O[C@H]2[C@H]1OC(=O)CCC [dbcAMP],translocation of the fusion protein,"[1]; 1, 10 and 50 mM forskolin, dbcAMP at 1 mM",dramatic translocation of the fusion protein from a punctate distribution to an even distribution throughout the cytoplasm
"EGF: growth factor added to activate the MAPK pathway and Erk1 nuclear translocation (NSDSECPLSHDGYCLHDGVCMYIEALDKYACNCVVGYIGERCQYRDLKWWELR; UniProt P01133 971-1023, looked up)",redistribution of EGFP-Erk1,"EGFP-Erk1 fusion; EGF 1-100 nM, within minutes",redistribution of EGFP-Erk1 from the cytoplasm into the nucleus
same,relationship between concentration and nuclear translocation of EGFP-Erk1,"EGFP-Erk1 fusion; change in nuclear to cytoplasmic ratio, six cells per treatment",dose-dependent relationship
insulin,redistribution of actin binding domain-EGFP probe,[3],redistributed into morphologically distinct membrane-associated structures
"C=C[C@@]1(C)CC(=O)[C@]2(O)[C@@]3(C)[C@@H](O)CCC(C)(C)[C@@H]3[C@H](O)[C@H](OC(C)=O)[C@@]2(C)O1 [forskolin, Forskolin]",forskolin concentration range of steep increase in amount of cAMP produced,cAMP,1 to 5 mM
